Measurements from US20230295152A1 (SENDA BIOSCIENCES, INC., priority 2019, published 2023).
pIC50: −log10 of the molar value.

biological target: T1, AHR (Homo sapiens, UniProt P35869); assay: DRE-Luciferase Reporter Assay, HepG2 AhR-Lucia reporter cells; assay type: cell-based; conditions: with AHR activating ligand at EC50, read-out: HepG2-Luc IC50
T1 construct: other cell line with a DRE-luciferase reporter stably transfected; endogenous in cells; host or cells: HepG2 AhR-Lucia reporter cells
T1 sequence (P35869 11-848): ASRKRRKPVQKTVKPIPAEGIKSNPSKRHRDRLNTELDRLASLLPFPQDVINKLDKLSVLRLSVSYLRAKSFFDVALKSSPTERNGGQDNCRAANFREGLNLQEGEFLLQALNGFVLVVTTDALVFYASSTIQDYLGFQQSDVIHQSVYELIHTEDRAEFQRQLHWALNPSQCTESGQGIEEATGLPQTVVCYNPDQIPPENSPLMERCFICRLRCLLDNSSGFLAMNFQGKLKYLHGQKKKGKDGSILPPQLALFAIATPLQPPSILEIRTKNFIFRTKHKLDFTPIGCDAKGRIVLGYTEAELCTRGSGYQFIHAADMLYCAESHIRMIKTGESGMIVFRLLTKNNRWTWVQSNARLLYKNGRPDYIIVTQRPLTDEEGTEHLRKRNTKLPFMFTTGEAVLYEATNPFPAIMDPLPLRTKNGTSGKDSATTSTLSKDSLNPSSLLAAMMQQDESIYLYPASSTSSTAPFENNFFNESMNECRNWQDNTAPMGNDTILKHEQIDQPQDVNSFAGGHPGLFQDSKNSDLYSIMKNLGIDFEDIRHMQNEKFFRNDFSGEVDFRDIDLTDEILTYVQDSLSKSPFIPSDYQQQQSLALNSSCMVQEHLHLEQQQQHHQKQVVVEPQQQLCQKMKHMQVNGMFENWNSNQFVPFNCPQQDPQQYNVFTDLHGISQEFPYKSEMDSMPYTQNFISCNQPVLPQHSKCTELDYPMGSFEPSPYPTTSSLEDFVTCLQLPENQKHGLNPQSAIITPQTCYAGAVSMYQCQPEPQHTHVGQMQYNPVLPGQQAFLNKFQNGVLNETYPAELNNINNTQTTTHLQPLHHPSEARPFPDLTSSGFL
Excerpt: AHR binds to Dioxin Responsive Elements (DRE) upstream of genes that it activates. One measure of AHR activity is activation of a reporter gene, such as luciferase, downstream of one or multiple DRE elements. Luciferase activity will reflect activation and inhibition of AHR in the cells expressing his reporter. 20000 Human HepG2 liver carcinoma—AhR-Lucia reporter cells or Human HT29 colon adenocarcinoma—AhR reporter cells or other cell line with a DRE-luciferase reporter stably transfected were plated in Eagle's Minimal Essential Medium, 10% heat-inactivated FBS, 1× non-essential amino acids Pen-Strep (10,000 U/mL) and Normocin (100 ug/mL) in plates (96-well, 384-well or other plates) and incubated overnight at 37° C. in a CO2 incubator and treated with and without AhR antagonists at a log dilution starting at 100 uM.
After 1 hr that cells were plated an AHR activating ligand, such as TCDD, kynurenine, ITE (2-(1H-indole-3-ylcarbonyl)-4-thiazolecarboxylic methyl ester), VAF347, BNF (beta-naphthoflavone), FICZ (6-formylindolo(3,2-b) carbazole) or other AHR ligands at their specific EC50 concentration, were added to the cells with or without AHR antagonist.
Cells were incubated for 24 or 48 hours or another time point and then, supernatant was analyzed for determination of luciferase activity as a read-out of the AHR activation or inhibition. Luciferase was measured with the commercial kit QUANTI-Luc™ assay solution kit from Invivogen following the manufacturer's instructions.
The level of luciferase with only agonist ligand added was the maximum signal while the luciferase with […] was the minimum signal. IC50 values were determined as the concentration which inhibits half of the luciferase activity.

pIC50 | SMILES
> 7.00 | Cn1cc(-c2nc(-c3ccc(C(F)(F)F)cn3)cc3c(=O)n([C@H]4COC[C@@H]4O)cnc23)cn1 [Compound 137, 3-((3S,4R)-4-hydroxytetrahydrofuran-3-yl)-8-(1-methyl-1H-pyrazol-4-yl)-6-(5-(trifluoromethyl)pyridin-2-yl)pyrido[3,4-d]pyrimidin-4(3H)-one]
> 7.00 | C[C@@H](CO)n1cnc2c(-c3cnn(C)c3)nc(-c3cnc(C(F)(F)F)s3)cc2c1=O [Compound 168, (S)-3-(1-hydroxypropan-2-yl)-8-(1-methyl-1H-pyrazol-4-yl)-6-(2-(trifluoromethyl)thiazol-5-yl)pyrido[3,4-d]pyrimidin-4(3H)-one]
> 7.00 | Cn1cc(-c2nc(-c3cnc(C(F)(F)F)s3)cc3c(=O)n([C@@H]4COC[C@H]4O)cnc23)cn1 [Compound 172, 3-((3R,4S)-4-hydroxytetrahydrofuran-3-yl)-8-(1-methyl-1H-pyrazol-4-yl)-6-(2-(trifluoromethyl)thiazol-5-yl)pyrido[3,4-d]pyrimidin-4(3H)-one]
> 7.00 | C[C@@H](C(=O)N(C)C)n1cnc2c(-c3cccnc3)nc(-c3ccc(C(F)(F)F)nc3)cc2c1=O [Compound 157, (S)—N,N-dimethyl-2-(4-oxo-8-(pyridin-3-yl)-6-(6-(trifluoromethyl)pyridin-3-yl)pyrido[3,4-d]pyrimidin-3(4H)-yl)propenamide]
> 7.00 | CCN(CC)c1nc(-c2ccc(C(F)(F)F)nc2)cc2c(=O)n([C@@H](C)CO)cnc12 [Compound 174, (S)-8-(diethylamino)-3-(1-hydroxypropan-2-yl)-6-(6-(trifluoromethyl)pyridin-3-yl)pyrido[3,4-d]pyrimidin-4(3H)-one]
> 7.00 | Cn1cc(-c2nc(-c3ccc(Cl)cc3)cc3c(=O)n([C@@H]4COC[C@@H]4O)cnc23)cn1 [Compound 131, 6-(4-chlorophenyl)-3-((3R,4R)-4-hydroxytetrahydrofuran-3-yl)-8-(1-methyl-1H-pyrazol-4-yl)pyrido[3,4-d]pyrimidin-4(3H)-one]
> 7.00 | Cn1cc(-c2nc(-c3ccc(C(F)(F)F)cn3)cc3c(=O)n(C[C@@H](O)C(F)(F)F)cnc23)cn1 [Compound 146]
6.30 to 7.00 | C[C@@H](CO)n1cnc2c(-c3cccnc3)nc(-c3ccccn3)cc2c1=O [Compound 182, (S)-3-(1-hydroxypropan-2-yl)-6-(pyridin-2-yl)-8-(pyridin-3-yl)pyrido[3,4-d]pyrimidin-4(3H)-one]
< 6.30 | C[C@@H](CO)n1cnc2c(-c3cccnc3)nc(C3CCCCC3)cc2c1=O [Compound 181, (S)-6-cyclohexyl-3-(1-hydroxypropan-2-yl)-8-(pyridin-3-yl)pyrido[3,4-d]pyrimidin-4(3H)-one]
> 7.00 | Cn1cc(-c2nc(-c3ccc(C(F)(F)F)cn3)cc3c(=O)n([C@@H]4COC[C@H]4O)cnc23)cn1 [Compound 138, 3-((3R,4S)-4-hydroxytetrahydrofuran-3-yl)-8-(1-methyl-1H-pyrazol-4-yl)-6-(5-(trifluoromethyl)pyridin-2-yl)pyrido[3,4-d]pyrimidin-4(3H)-one]
> 7.00 | Cn1cc(-c2nc(-c3cnc(C(F)(F)F)s3)cc3c(=O)n(CC(C)(C)O)cnc23)cn1 [Compound 170, 3-(2-hydroxy-2-methylpropyl)-8-(1-methyl-1H-pyrazol-4-yl)-6-(2-(trifluoromethyl)thiazol-5-yl)pyrido[3,4-d]pyrimidin-4(3H)-one]
6.30 to 7.00 | C[C@@H](CO)n1cnc2c(C3=CCCCC3)nc(-c3ccc(C(F)(F)F)cn3)cc2c1=O [Compound 188, (S)-8-(cyclohex-1-en-1-yl)-3-(1-hydroxypropan-2-yl)-6-(5-(trifluoromethyl)pyridin-2-yl)pyrido[3,4-d]pyrimidin-4(3H)-one]
> 7.00 | C[C@@H](CO)n1cnc2c(-c3cn[nH]c3)nc(-c3ccc(C(F)(F)F)cn3)cc2c1=O [Compound 191, (S)-3-(1-hydroxypropan-2-yl)-8-(1H-pyrazol-4-yl)-6-(5-(trifluoromethyl)pyridin-2-yl)pyrido[3,4-d]pyrimidin-4(3H)-one]

The remaining lines, values behind:

SMILES | pIC50
Cc1ccncc1-c1nc(-c2ccc(C(F)(F)F)nc2)cc2c(=O)n([C@@H](C)CO)cnc12 [Compound 64] | < 6.30
Cc1ncsc1-c1cc2c(=O)n([C@@H](C)CO)cnc2c(-c2cccnc2)n1 [Compound 65] | 6.30 to 7.00
Cn1cnc2c(-c3cccnc3)nc(-c3ccc(OC(F)(F)F)cc3)cc2c1=O [Compound 28] | > 7.00
O=c1c2cc(-c3ccc(Cl)cc3)nc(-c3cccnc3)c2ncn1CC(O)C(F)(F)F (stereo not shown) [Compound 13] | > 7.00
O=c1c2cc(-c3ccc(Cl)cc3)nc(-c3cccc(F)c3)c2ncn1C[C@H](O)C(F)(F)F (stereo in doubt) [Compound 41] | > 7.00
O=c1c2cc(-c3cccnc3)nc(-c3cccnc3)c2ncn1CC(O)C(F)(F)F (stereo not shown) [Compound 10] | 6.30 to 7.00
O=c1c2cc(-c3ccc(C4CC4)nc3)nc(-c3cccnc3)c2ncn1C[C@@H](O)C(F)(F)F [Compound 121, (R)-6-(6-cyclopropylpyridin-3-yl)-8-(pyridin-3-yl)-3-(3,3,3-trifluoro-2-hydroxypropyl)pyrido[3,4-d]pyrimidin-4(3H)-one] | > 7.00
C[C@@H](CO)n1cnc2c(-c3cccc4c3OCO4)nc(-c3ccc(Cl)cc3)cc2c1=O [Compound 3] | 6.30 to 7.00
C[C@@H](CO)n1cnc2c(-c3cn[nH]c3)nc(-c3ccc(C(F)(F)F)nc3)cc2c1=O [Compound 62] | > 7.00
CC(C)(O)Cn1cnc2c(-c3cnn(C(F)(F)F)c3)nc(-c3ccc(C(F)(F)F)nc3)cc2c1=O [Compound 94] | > 7.00
C[C@@H](CO)n1cnc2c(-c3cccnc3)nc(-c3ccc(C(=O)O)nc3)cc2c1=O [Compound 97] | < 6.30
C[C@@H](CO)n1cnc2c(-c3cccnc3)nc(Cl)cc2c1=O [Compound 11, (S)-6-chloro-3-(1-hydroxypropan-2-yl)-8-(pyridin-3-yl)pyrido[3,4-d]pyrimidin-4(3H)-one] | < 6.30
Cn1cc(-c2nc(-c3ccc(Cl)cc3)cc3c(=O)n(CC(O)C(F)(F)F)cnc23)cn1 (stereo not shown) [Compound 15] | > 7.00
CN1CC(O)C(n2cnc3c(-c4cccnc4)nc(-c4ccc(Cl)cc4)cc3c2=O)C1 (stereo not shown) [Compound 128, 6-(4-chlorophenyl)-3-(4-hydroxy-1-methylpyrrolidin-3-yl)-8-(pyridin-3-yl)pyrido[3,4-d]pyrimidin-4(3H)-one] | > 7.00
Cn1cc(-c2cc3c(=O)n(CC(C)(C)O)cnc3c(-c3cnn(C)c3)n2)cn1 [Compound 19] | < 6.30
CC(C)c1ncc(-c2cc3c(=O)n([C@@H](C)CO)cnc3c(-c3cccnc3)n2)s1 [Compound 67] | > 7.00
Cc1cc(Cl)ccc1-c1cc2c(=O)n(CC(C)(C)O)cnc2c(-c2cnn(C)c2)n1 [Compound 61] | 6.30 to 7.00
CC(C)(O)Cn1cnc2c(-c3cccnc3)nc(-c3cnc(C(F)(F)F)nc3)cc2c1=O [Compound 96] | > 7.00
